# Measurements published in article PMC10755736, “Modulating Liquid–Liquid Phase Separation of Nck Adaptor Protein against Enteropathogenic Escherichia coli Infection” (ACS Central Science, 2023).
# Entries after “also recorded” stand apart in the source; their conditions may differ. Non-standard residues stand in square brackets, D forms with d. Residues, ends and D or L forms follow the SMILES beside them. *: point of attachment. Biotin = O=C1N[C@H]2[C@H](CS[C@H]2CCCCC(=O)*)N1; Benzoyl(4-SO2F) = O=C(c1ccc(S(=O)(=O)F)cc1)*; pY = N[C@@H](Cc1ccc(OP(=O)(O)O)cc1)C(=O)O; Dap = NC[C@H](N)C(=O)O
# Legend:
# Nck/N-WASP/3pY = target: T1, Nck/N-WASP/3pY (Homo sapiens, UniProt P16333); experiment: Disruption of Nck/N-WASP/3pY droplets by pY peptides (microscopy); assay type: biochemical; conditions: peptide 12.5, 25, 50, 100 µM; 0, 10, 30 min; Nck 80 μM, N-WASP 15 μM, 3pY 10 μM; confocal
# T1 construct: GST (followed by PreScission/HRV 3C site) (N, cleaved yes); made in house; host or cells: E. coli BL21(DE3)
# Description: Next, we explored the intervention of Nck/N-WASP/3pY LLPS using pY peptides (Figure 3a). Three pY-containing peptides extracted from different Tir sequences were synthesized, namely, peptides Y474, Y751, and Y147 (Figure 3b).
# Figure 3 pY peptides disrupt Nck/N-WASP/3pY LLPS. (a) Sequences of synthetic pY peptides. […] Nck: 20 μM; N-WASP: 10 μM; 3pY: 10 μM. Scale bars, 20 μm. (c) Peptide Y474 rapidly decreases the turbidity of the Nck/N-WASP/3pY solution in around 20 min. Nck: 20 μM, N-WASP: 10 μM, 3pY: 10 μM. […] Nck: 20 μM, N-WASP: 10 μM, 3pY: 10 μM. […]
# peptide 0 min 10 min 30 min
# Peptides p1 with different concentrations were added to decrease the droplet formation of the Nck/N-WASP/3pY solution and droplet disassembles were observed under confocal microscopy at different times (0 min, 10 min and 30 min). Nck: 80 μM, N-WASP: 15 μM, 3pY: 10 μM. […]
# Figure S13. […] Peptides Y474 with […]
# different concentrations were added to decrease the droplet formation of the Nck/N-WASP/3pY solution and droplet disassembles were observed under confocal microscopy at different times (0 min, 10 min and 30 min). Nck: 80 μM, N-WASP: 15 μM, 3pY: 10 μM.
# Caco-2 cells = experiment: Cell viability by CCK8 assay; assay type: cell-based
# Description: concentrations were added to each well, followed by a 90-min incubation at 37 °C. Diluted streptavidin-HRP solution was then added, followed by substrate solution to develop cover at 450 nm, and recorded by a plate reader. For MST test, a series diluted solutions of the cy5 labeled peptides were incubated with 400 nM Nck for 30 min and loaded into 16 capillaries. And then the samples were scanned and measured at 20% IR Laser power with 30 s laser-on time on a Monolith NT.115 instrument (NanoTemper Technologies). The data were analyzed by KD fitting model (KD) or hill fitting model […]
# A Cell Line Stably Expressing N-WASP
# To establish a stable pool of cells for N-WASP overexpression, Caco-2 cells were infected at 70-80% confluency with the virus diluted in a suitable medium supplemented with 8 µg/ml […]. After 48 h of incubation, infected cells were treated with puromycin for 7-14 days. The selection medium was changed every 2 days. Under the same treatment conditions, uninfected parental cells were used as selection controls. […]
# Plasmid extraction was done using a plasmid DNA Maxi kit (Omega Bio-Tek, GA, USA). […] 48 h after transfection, cells were analyzed by fluorescent micrscopes. Cell viability was measured by a CCK8 assay (Thermo Fisher Scientific) according to its manual. […]
# Figure S10. […] The viability was measured at 450 nm absorbance.
# Nck-SH2K331A = experiment: Covalent reaction of p1 with Nck-SH2 K331A mutant; assay type: binding; conditions: PBS, 37 °C, 1 min or 10 min; SDS-PAGE
# Description: We next identified the residues in Nck-SH2 that are involved in the reaction with p1 by mass spectrometry. […] The Nck–p1 conjugate was digested with trypsin, and peptide fragments were analyzed with an in-line EASY-spray source and nano-LC UltiMate 3000 HPLC system interfaced with an Elite mass spectrometer, operated in the data-dependent acquisition (DDA) mode with one full MS scan at R = 60,000 (m/z = 200) mass followed by HCD MS/MS scans. […] The fragmentation spectral analysis of [EEHIpYXEVAAD(α)] + [HFKVQLK(β)] extracted by pLabel v2.4.3.0 (Figure 5a and Figure S6 in the Supporting Information)[38],[39] confirmed the ligand-directed conjugation of Nck-SH2 protein with p1 peptide. The underlined lysine residue in the β-chain sequence indicated the cross-linked site on the predicted Nck Lys331 residue. Next, we mutated Nck Lys331 to Ala, expressed and purified the Nck-SH2K331A mutant. […]
# The reaction mixture of Nck and p1 were digested with trypsin. Digested peptides were analyzed with an in-line EASY-spray source and nano-LC UltiMate 3000 high-performance liquid chromatography system (Thermo Fisher, USA) interfaced with an Elite mass spectrometer (Thermo Fisher, USA). The eluted peptides were detected by the Elite mass spectrometer, which was operated in data-dependent mode with one full MS scan at R = 60,000 (m/z = 200) mass, followed by MS/MS scans. […]
smiles,measurement,setting,value
CC[C@H](C)[C@H](NC(=O)[C@H](Cc1c[nH]cn1)NC(=O)[C@H](CCC(=O)O)NC(=O)[C@H](CCC(=O)O)NC(=O)CCCC[C@@H]1SC[C@@H]2NC(=O)N[C@@H]21)C(=O)N[C@@H](Cc1ccc(OP(=O)(O)O)cc1)C(=O)N[C@@H](CNC(=O)c1ccc(S(=O)(=O)F)cc1)C(=O)N[C@@H](CCC(=O)O)C(=O)N[C@H](C(=O)N[C@@H](C)C(=O)N[C@@H](C)C(=O)N[C@@H](CC(=O)O)C(N)=O)C(C)C [p1] (Biotin-EEHI[pY][Dap](Benzoyl(4-SO2F))EVAAD-NH2; N-terminus and C-terminus assumed),reversal of Nck/N-WASP/3pY phase separation (droplet disassembly),Nck/N-WASP/3pY,reverses the phase separation; also recorded: disintegrate phase-separated Nck droplets
same,cytotoxicity,"Caco-2 cells; CCK8, p1 0.3125-10 μM with L17E 40 μM for 3 h, 48 h incubation",did not cause noticeable cytotoxicity
same,cell physiology or toxicity changes from side reactions of sulfonyl fluoride,Caco-2 cells; inside cells,did not cause noticeable changes in the cell physiology or toxicity
same,reactivity with Nck-SH2 K331A,Nck-SH2K331A,did not show noticeable reactivity; also recorded: abolished the covalent reaction
